Data taken from ChEMBL document CHEMBL1240460, “Design, synthesis and antifungal activity of isosteric analogues of benzoheterocyclic N-myristoyltransferase inhibitors” (2010).
Converted amounts (≈) assume the structure as drawn.

What was measured:
Assay type in all cases: functional
Nannizzia gypsea = assay: Antifungal activity against Microsporum gypseum by serial dilution method
Cryptococcus neoformans = assay: Antifungal activity against Cryptococcus neoformans by serial dilution method
Candida albicans = assay: Antifungal activity against Candida albicans by serial dilution method
Aspergillus fumigatus = assay: Antifungal activity against Aspergillus fumigatus by serial dilution method
Trichophyton rubrum = assay: Antifungal activity against Trichophyton rubrum by serial dilution method
Candida parapsilosis = assay: Antifungal activity against Candida parapsilosis by serial dilution method; settings: Lodderomyces parapsilosis
Candida tropicalis = assay: Antifungal activity against Candida tropicalis by serial dilution method

SMILES | MIC80 (Nannizzia gypsea) [µg/mL] | MIC80 (Cryptococcus neoformans) [µg/mL] | MIC80 (Candida albicans) [µg/mL] | MIC80 (Aspergillus fumigatus) [µg/mL] | MIC80 (Trichophyton rubrum) [µg/mL] | MIC80 (Candida parapsilosis) [µg/mL] | MIC80 (Candida tropicalis) [µg/mL]
Fc1ccc(OCc2cc3c(OCCCNCc4cccnc4)cccc3[nH]2)cc1 | 32 (≈ 78.9 µM) | 128 (≈ 316 µM) | > 128 | > 128 | 128 (≈ 316 µM) |  | 
c1ccc(SCc2cc3c(OCCCNCc4cccnc4)cccc3[nH]2)cc1 | 8 (≈ 19.8 µM) | 64 (≈ 159 µM) | 128 (≈ 317 µM) | > 128 | 64 (≈ 159 µM) |  | 
Clc1cccc(Cl)c1SCc1cc2c(OCCCNCc3cccnc3)cccc2[nH]1 | 4 (≈ 8.47 µM) | 64 (≈ 135 µM) | 64 (≈ 135 µM) | > 128 | 16 (≈ 33.9 µM) |  | 
O=C(Nc1cccc(F)c1)c1cc2c(OCCCNCc3cccnc3)cccc2[nH]1 | 32 (≈ 76.5 µM) | 128 (≈ 306 µM) | 128 (≈ 306 µM) | > 128 | 64 (≈ 153 µM) |  | 
O=C(Nc1ccc(Cl)cc1)c1cc2c(OCCCNCc3cccnc3)cccc2[nH]1 | 32 (≈ 73.6 µM) | > 128 | > 128 | > 128 | 128 (≈ 294 µM) |  | 
O=C(Nc1ccccc1)c1cc2c(OCCCNCc3cccnc3)cccc2[nH]1 | 32 (≈ 79.9 µM) | > 128 | > 128 | > 128 | 64 (≈ 160 µM) |  | 
O=C(Nc1ccc(F)c(F)c1)c1cc2c(OCCCNCc3cccnc3)cccc2[nH]1 | 16 (≈ 36.7 µM) | 128 (≈ 293 µM) | > 128 | > 128 | 32 (≈ 73.3 µM) |  | 
O=C(Nc1ccccc1Cl)c1cc2c(OCCCNCc3cccnc3)cccc2[nH]1 | 2 (≈ 4.6 µM) | > 128 | > 128 | > 128 | 128 (≈ 294 µM) |  | 
Fc1ccccc1OCc1nc2c(OCCCNCc3cccnc3)cccc2o1 |  | 16 (≈ 39.3 µM) | 4 (≈ 9.82 µM) | > 64 |  | 1 (≈ 2.45 µM) | 0.0625 (≈ 0.153 µM)
Fc1ccc(OCc2nc3c(OCCCNCc4cccnc4)cccc3o2)cc1 |  | 16 (≈ 39.3 µM) | 16 (≈ 39.3 µM) | > 64 |  | 1 (≈ 2.45 µM) | 1 (≈ 2.45 µM)
c1ccc(OCc2nc3c(OCCCNCc4cccnc4)cccc3o2)cc1 |  | 64 (≈ 164 µM) | 16 (≈ 41.1 µM) | > 64 |  | 1 (≈ 2.57 µM) | 0.25 (≈ 0.642 µM)
Fc1ccc(OCc2nc3c(OCCCNCc4cccnc4)cccc3o2)c(F)c1 |  | 16 (≈ 37.6 µM) | 1 (≈ 2.35 µM) | > 64 |  | 0.25 (≈ 0.588 µM) | 1 (≈ 2.35 µM)
Fc1cccc(F)c1OCc1nc2c(OCCCNCc3cccnc3)cccc2o1 |  | 64 (≈ 150 µM) | 64 (≈ 150 µM) | > 64 |  | 4 (≈ 9.4 µM) | 1 (≈ 2.35 µM)
Fc1ccc(OCc2nc3c(OCCCNCc4cccnc4)cccc3o2)c(F)c1F |  | 64 (≈ 144 µM) | 0.25 (≈ 0.564 µM) | > 64 |  | 0.25 (≈ 0.564 µM) | 0.25 (≈ 0.564 µM)
Fc1cc(F)c(OCc2nc3c(OCCCNCc4cccnc4)cccc3o2)c(F)c1 |  | 16 (≈ 36.1 µM) | 16 (≈ 36.1 µM) | 64 (≈ 144 µM) |  | 1 (≈ 2.26 µM) | 1 (≈ 2.26 µM)
O=[N+]([O-])c1cccc(OCc2nc3c(OCCCNCc4cccnc4)cccc3o2)c1 |  | > 64 | > 64 | > 64 |  | 4 (≈ 9.21 µM) | 0.25 (≈ 0.575 µM)
CCOC(=O)c1cc2c(OCCCNCc3cccnc3)cccc2[nH]1 | 32 (≈ 90.5 µM) | > 128 | > 128 | > 128 | 64 (≈ 181 µM) |  | 
Fc1ccc(OCc2cc3c(OCCCNCc4cccnc4)cccc3[nH]2)c(F)c1 | 8 (≈ 18.9 µM) | 64 (≈ 151 µM) | > 128 | > 128 | 32 (≈ 75.6 µM) |  | 
CCOC(=O)c1oc2cccc(OCCCNCc3cccnc3)c2c1C | 4 (≈ 10.9 µM) | 64 (≈ 174 µM) | 1 (≈ 2.71 µM) | > 64 | 4 (≈ 10.9 µM) | 4 (≈ 10.9 µM) | 1 (≈ 2.71 µM)
Cc1c(COc2ccc(F)c(F)c2F)oc2cccc(OCCCNCc3cccnc3)c12 | 2 (≈ 4.38 µM) | 0.5 (≈ 1.1 µM) | 0.125 (≈ 0.274 µM) | 16 (≈ 35.1 µM) | 1 (≈ 2.19 µM) | 0.0625 (≈ 0.137 µM) | 0.125 (≈ 0.274 µM)
OC(Cn1cncn1)(Cn1cncn1)c1ccc(F)cc1F [FLUCONAZOLE] | 16 (≈ 52.2 µM) | 1 (≈ 3.27 µM) | 0.25 (≈ 0.816 µM) | > 64 | 1 (≈ 3.27 µM) | 4 (≈ 13.1 µM) | 4 (≈ 13.1 µM)
